Earlier results in US20030069214A1, “Process for preparing saponin compounds” (priority 2001, published 2003).

Columns and labels:
[1] = system: broad spectrum of malignant tumor cells; conditions: Bioorg. Med. Chem. Lett., 7, 633, 1997
normal cells = normal cells in vitro; Bioorg. Med. Chem. Lett., 7, 633, 1997

SMILES: COc1ccc(C(=O)O[C@H]2[C@H](O[C@@H]3[C@@H](OC(C)=O)[C@H](O[C@H]4C[C@H]5[C@@H]6CC=C7C[C@@H](O)CC[C@]7(C)[C@H]6CC[C@]5(C)[C@@]4(O)[C@H](C)C(=O)CCC(C)C)OC[C@@H]3O)OC[C@@H](O)[C@@H]2O)cc1 [OSW-1]
- toxicity against malignant tumor cells [1]: highly toxic
- toxicity to normal cells (normal cells): little toxicity
